Key:
[1] = tested on: barrier-disrupted human epidermis; test: TEER of tape stripped (barrier-disrupted) human epidermis in the system; assay type: cell-based; conditions: compared with media alone
Description: (§1) The Weck blade is held at a 30-45° angle from the donor skin (e.g. living subject or discarded skins from plastic surgery procedures) surface, while a gentle traction behind the blade is provided by the other hand. Using different depths (e.g. […]), based on the skin sample source (e.g. based on differences in epidermal depth in different anatomical areas as well as species-specific differences), we can effectively isolate intact, full thickness epidermal samples with minimal to no dermis (e.g. subepithelial tissue). The epidermis is removed using that Weck surgical blade, cut into smaller samples to fit the apparatus and placed in a calcium-containing buffer until it is mounted in the device.
(§2) We have also used the invention to test the effect of cytokines relevant to human disease on epidermal barrier function recovery. Human discarded skin was tape stripped to induce a barrier impairment, this barrier-disrupted epidermis was isolated using the Weck blade and placed into the system. Samples were than treated for 24 h with human recombinant IL17A, a prototypic cytokine commonly found within the skin lesions of psoriasis (FIG. 6) or the Th2 cytokines, IL4 and IL13, commonly found in atopic dermatitis (FIG. 7). After 24 h treatment with human recombinant IL17A (50 and 100 ng/ml), TEER was increased, and paracellular flux was reduced as compared with a sample treated with media alone. Those data indicated IL17A enhanced epidermal barrier recovery.

[2] = tested on: barrier-disrupted human epidermis; test: Paracellular flux across tape stripped (barrier-disrupted) human epidermis in the system; assay type: cell-based; conditions: compared with media alone
Description: as §1, §2

[3] = tested on: murine skin samples (wild type and STAT6 mice); test: Skin barrier recovery after in vivo tape stripping, murine skin samples mounted in the system; assay type: cell-based; conditions: Pam3CSK4 10 μM; wild type versus STAT6 mice, n=3 each; normalized to WT vehicle control; FIG. 8
Description: For very thin skin samples isolated from rodents or other small mammalians, curettage along the dermal surface of the biopsy can be performed with a blade to minimize the amount of dermis taken. Alternatively, skin can be incubated in ammonium thiocyanate and epidermis removed from dermis. Murine skin can be isolated from any anatomical area, defatted using a surgical blade, cut into smaller samples to mount in the apparatus.
We have also used the present invention in a murine model. Skin barrier recovery after in vivo tape stripping was evaluated in wild type mice as compared to genetically modified mice that expressed a constitutively activated form of STAT6 under the CD2 locus, that results in the enhanced expression of Th2 cytokines (IL-4 and IL-13). Skin samples were collected from the healthy, nonperturbed skin of the back or from an area of the back that underwent tape stripping. The dermis was removed by scraping with a surgical blade and skin samples were mounted in the system. We observed no differences in recovery between the two mice strains. […] All data are normalized to WT vehicle control group. In FIG. 8, ns: not significant; *P<0.05, **P<0.01, ***P<0.001. (WT, n=3; STAT6VT, n=3).

[4] = tested on: intact human epidermis samples; conditions: Histamine 100 μM; evaluated at 10, 20 and 30 minutes; epidermis isolated with dispase; FIG. 5
Description: The invention will allow measuring epidermal barrier integrity by evaluating transepithelial electric resistance (TEER), using a planar electrode (for example, Endohm-Snap; World Precision Instruments, Sarasota, Fla., USA), and a paracellular flux assay of for example, fluorescently labeled probes of different radii and sizes. Probes can be added to the upper well, and samples will be collected in the lower well over time to determine the paracellular flux. The amount of fluorescent probes that diffuse across the epidermis sample can be measured using an appropriate fluorometer or spectrophotometer.
The filter 206 of the original detachable ring 204 in the Snapwell™ (Corning, 3407) is replaced by a sandwich system 302 having two Plexiglas (or any other suitable material) inserts 304, with the epidermis/skin sample 306 lying in between them on a filter paper 308 (Nucleopore Track-etched, #110407; 13 mm diameter & pore: 0.4 μm) so that it covers the opening. The skin sample 306 is inserted with epidermis side up. Each of the inserts 304 has a hole 310 formed therein with a diameter of 0.3 cm and an area of 0.0707 cm^2. As in the conventional Snapwell™ system, the sandwich system is 302 is placed between an upper well 312 having a medium 314 and a lower well 316 having a medium 318. A volt-ohm meter 320 is connected between the two media. […]

[5] = IL17A 50 and 100 ng/ml, 24 h treatment, FIG. 6
[6] = IL4 (50 ng/ml) and IL13 (50 ng/ml) given together, FIG. 7

Molecule	TEER [1, 6]	paracellular flux [2, 6]	further results
IL17A: human recombinant IL17A, a prototypic cytokine commonly found within the skin lesions of psoriasis	–	–	TEER [1, 5]: increased; paracellular flux [2, 5]: reduced
IL13: human recombinant IL13, Th2 cytokine commonly found in atopic dermatitis	reduced	increased	–
Pam3CSK4	–	–	skin barrier recovery [3]: greater recovery in wild type mice
NCCc1c[nH]cn1 [Histamine]	–	–	paracellular flux of fluorescein [4]: enhanced
IL4: human recombinant IL4, Th2 cytokine commonly found in atopic dermatitis (protein, UniProt P05112 25-153, looked up) Interleukin-4: HKCDITLQEIIKTLNSLTEQKTLCTELTVTDIFAASKNTTEKETFCRAATVLRQFYSHHEKDTRCLGATAQQFHRHKQLIRFLKRLDRNLWGLAGLNSCPVKEANQSTLENFLERLKTIMREKYSKCSS	reduced	increased	–

Reference: US8993257B2, “System and method for studying epidermis samples ex vivo” (University of Rochester, priority 2012, dated 2015)
